Source: the NIST ThermoML archive (doi:10.1016/j.jct.2015.06.019)
± gives the expanded uncertainty stated by the source.

Columns and labels:
[1] = DSC
[2] = Molar enthalpy of transition or fusion; details: DSC

Triple point temperature ([1]; Crystal 1): 458.4 ± 1 K | Triple point temperature ([1]; Crystal 2): 454.7 ± 1 K | Molar enthalpy of transition or fusion ([2]; Crystal 1): 7.98 ± 0.335 kcal/mol | Molar enthalpy of transition or fusion ([2]; Crystal 2): 9.09 ± 0.382 kcal/mol
Compound: COC(=O)[C@H](c1ccccc1Cl)N1CCc2sccc2C1.O=S(=O)(O)O [(S)-(+)-Clopidogrel hydrogen sulfate]
